Usually IC50 stands for the concentration that gives 50% inhibition.

SMILES strings stand for the structures.

Our source for the IC50 values is US8623859B2, “Bradykinin B1 antagonists” (Evotec AG, priority 2008, dated 2014).

This assay addresses T1, human B1 (Homo sapiens, UniProt P46663).
T1 construct: host or cells: CHO-K1
T1 sequence (P46663 1-353): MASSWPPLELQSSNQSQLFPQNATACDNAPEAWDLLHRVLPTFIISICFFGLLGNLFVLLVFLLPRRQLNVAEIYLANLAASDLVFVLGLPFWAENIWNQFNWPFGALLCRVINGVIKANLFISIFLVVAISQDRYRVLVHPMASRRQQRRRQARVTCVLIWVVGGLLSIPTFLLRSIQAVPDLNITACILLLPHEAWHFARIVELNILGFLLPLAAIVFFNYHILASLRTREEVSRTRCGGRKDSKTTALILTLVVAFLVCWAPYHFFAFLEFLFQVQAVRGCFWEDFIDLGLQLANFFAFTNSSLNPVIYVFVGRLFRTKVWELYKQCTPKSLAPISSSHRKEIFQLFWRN
The assay is described as follows: Calcium flux assay for Bradykinin B1 antagonist, CHO-K1 cell line expressing human B1. Type of assay: cell-based. Conditions: CHO-K1 cells expressing human B1, agonist Lys-(Des-Arg)-Bradykinin, read-out: Potency (IC50 value against human B1). As to the method:
Calcium Flux Assay for Bradykinin B1 Antagonist
The potency to inhibit the Bradykinin B1 receptors was determined for the compounds of this invention in a cell-based fluorescent calcium-mobilization assay. The assay measures the ability of test compounds to inhibit Bradykinin B1 receptor agonist-induced increase of intracellular free Ca^2+ in cell lines expressing B1.
The change of the intracellular Ca^2+ concentration is monitored with a specifically designed fluorescent plate reader (FlexStation, Molecular Devices).
CHO-K1 cell line expressing human B1 was purchased from Euroscreen (Gosselies, Belgium, with reference name hBl-D1). CHO-K1 cell lines expressing rat B1 or mouse B1 were established in the following way: the full-length receptor-coding cDNA clones were obtained by PCR performed on rat or mouse brain cDNAs. The respective cDNAs were cloned into an expression vector under the control of a CMV promotor. The resultant plasmids were introduced into CHO-K1 cells with liposome technology (FuGENE; Roche Diagnostics, Basel), according to the standard protocols described by the manufacturer. Cell lines expressing a Bradykinin receptor were selected in the culture medium containing 400 μg/ml G418 (Sigma). From selected cell populations, monoclonal cell lines were isolated by single cell cloning. The expression of Bradykinin receptors was confirmed by immunofluorescence staining of the cells, as well as by calcium flux assay.
Human B1-expressing cells were grown in Nutrient Mixture Ham's F12 (Sigma) containing 10% Foetal bovine serum (Sigma) and 400 μg/ml G418 (Sigma), 5 μg/ml puromycim (Sigma); Rat B1 and mouse B1-expressing cells were grown in DMEM/F12 medium (Sigma) containing 10% Foetal bovine serum (Sigma) and 400 μg/ml G418 (Sigma).
For the calcium flux assay, 80% confluent cells were detached from the culture vessels with Versene (Gibco; for human B1 cell-line) or with 1× trypsin-EDTA solution (Sigma; for rodent B1 cell-line), and seeded into 384-well plates (Cell binding Surface; Corning, N.Y.; #3683) at a density of 15,000 cells per well for human B1 or at a density of 20,000 cells per well for rodent B1. Cells were seeded in a volume of 50 μl in medium without antibiotics and incubated overnight in a humidified atmosphere with 5% CO2 at 37° C. The following day, the medium was replaced with 20 μl of 5 μM Fluo-4AM dye (Molecular Probes) in assay buffer (2.5 mM probenicid, 1 mg/ml pluronic acid, 0.1% BSA, 135 mM NaCl, 5 mM KCl, 1.8 mM CaCl, 1 mM MgCl2, 10 mM HEPES, 5.6 mM glucose, 0.05% gelatine, pH 7.4). The calcium indicator loaded cells were incubated at 37° C. for 2 hrs. Extracellular dye was then removed and each well was filled with 45 μl of assay buffer. Cell plates were kept in dark until used. Test compounds were assayed at 8 concentrations in triplicate. Serial 10-fold dilutions in 100% DMSO were made at a 100-times higher concentration than the final concentration, and then diluted 1:10 in assay buffer. 5 μl of each diluted compound was added to the well of cell plates (yielding final concentration with 1% DMSO), and incubated for 30 min at 25° C. before the addition of B1 agonist on the FlexStation.
The addition of agonist 20 μl per well to the assay plate was carried out on the FlexStation while continuously monitoring Ca^2+-dependent fluorescence at 538 nm. The integrated values, normalized with the background fluorescence, were plotted against the logarithm of the antagonist concentrations.
A general note: A change in cytosolic calcium serves as a functional read-out for many receptors and channels.

As for `COc1cc(C)c(S(=O)(=O)N(C)Cc2cc(C(=O)N3CCN(C4CCN(C)CC4)CC3)co2)c(C)c1` [Ex 1, 4-Methoxy-N,2,6-trimethyl-N-[(4-{[4-(1-methylpiperidin-4-yl)piperazin-1-yl]carbonyl}furan-2-yl)methyl]benzenesulfonamide], the IC50 lay in the range of 0.1 to 1 µM.

Turning to `COc1cc(C)c(S(=O)(=O)N(C)Cc2cc(C(=O)N(C)Cc3ccc(-n4ccnc4)cc3)co2)c(C)c1` [Ex 2, N-[4-(1H-imidazol-1-yl)benzyl]-5-({[(4-methoxy-2,6-dimethylphenyl)sulfonyl](methyl)amino}methyl)-N-methylfuran-3-carboxamide], the concentration for half-maximal inhibition (IC50) lay within 0.1 to 1 µM.

`COc1cc(C)c(S(=O)(=O)N(C)Cc2cc(C(=O)NC3CC(C)(C)N(C)C(C)(C)C3)co2)c(C)c1` [Ex 3, 5-({[(4-methoxy-2,6-dimethylphenyl)sulfonyl](methyl)amino}methyl)-N-(1,2,2,6,6-pentamethylpiperidin-4-yl)furan-3-carboxamide]: the IC50 lay within 0.1 to 1 µM.

`COc1cc(C)c(S(=O)(=O)N(C)Cc2cc(C(=O)NCCc3ccc(C4=NCCN4)cc3)co2)c(C)c1` [Ex 4, N-{2-[4-(4,5-dihydro-1H-imidazol-2-yl)phenyl]ethyl}-5-({[(4-methoxy-2,6-dimethylphenyl)sulfonyl](methyl)amino}methyl)furan-3-carboxamide]: the IC50 was < 0.01 µM.

Take `COc1cc(C)c(S(=O)(=O)N(C)Cc2cc(C(=O)N(C)CCc3ccc(C4=NCCN4)cc3)co2)c(C)c1` [Ex 5, N-{2-[4-(4,5-dihydro-1H-imidazol-2-yl)phenyl]ethyl}-5-({[(4-methoxy-2,6-dimethylphenyl)sulfonyl](methyl)amino}methyl)-N-methylfuran-3-carboxamide]: the 50% inhibitory concentration (IC50) is < 0.01 µM.

On to `COc1cc(C)c(S(=O)(=O)N(C)Cc2cc(C(=O)NCc3ccc(C4=NCCN4)cc3)co2)c(C)c1` [Ex 6, N-[4-(4,5-dihydro-1H-imidazol-2-yl)benzyl]-5-({[(4-methoxy-2,6-dimethylphenyl)sulfonyl](methyl)amino}methyl)furan-3-carboxamide], for which the IC50 was in the range of 0.01 to 0.1 µM.

As for `COc1cc(C)c(S(=O)(=O)N(C)Cc2cc(C(=O)NCCc3ccc(C4=NC(C)CN4)cc3)co2)c(C)c1` (stereo not drawn) [Ex 7, 5-({[(4-methoxy-2,6-dimethylphenyl)sulfonyl](methyl)amino}methyl)-N-{2-[4-(4-methyl-4,5-dihydro-1H-imidazol-2-yl)phenyl]ethyl}furan-3-carboxamide], the concentration for half-maximal inhibition (IC50) is < 0.01 µM.

Take `COc1cc(C)c(S(=O)(=O)N(C)Cc2cc(C(=O)N(C)Cc3cccc(CN4CCCC4)c3)co2)c(C)c1` [Ex 8, 5-({[(4-methoxy-2,6-dimethylphenyl)sulfonyl](methyl)amino}methyl)-N-methyl-N-[3-(pyrrolidin-1-ylmethyl)benzyl]furan-3-carboxamide]: the IC50 lay within 0.01 to 0.1 µM.

Turning to `COc1cc(C)c(S(=O)(=O)N(C)Cc2cc(C(=O)N(C)Cc3ccc(CN4CCCC4)cc3)co2)c(C)c1` [Ex 9, 5-({[(4-methoxy-2,6-dimethylphenyl)sulfonyl](methyl)amino}methyl)-N-methyl-N-[4-(pyrrolidin-1-ylmethyl)benzyl]furan-3-carboxamide], the IC50 fell in the range of 0.01 to 0.1 µM.

On to `COc1cc(C)c(S(=O)(=O)N(C)Cc2cc(C(=O)N(C)Cc3ccc(C4=NCCCN4)cc3)co2)c(C)c1` [Ex 10, 5-({[(4-methoxy-2,6-dimethylphenyl)sulfonyl](methyl)amino}methyl)-N-methyl-N-[4-(1,4,5,6-tetrahydropyrimidin-2-yl)benzyl]furan-3-carboxamide], for which the IC50 was in the range of 0.01 to 0.1 µM.

With `COc1cc(C)c(S(=O)(=O)N(C)Cc2cc(C(=O)NCc3cccc(CN4CCCC4)c3)co2)c(C)c1` [Ex 11, 5-({[(4-methoxy-2,6-dimethylphenyl)sulfonyl](methyl)amino}methyl)-N-[3-(pyrrolidin-1-ylmethyl)benzyl]furan-3-carboxamide], the half-inhibitory concentration (IC50) was 0.1 to 1 µM.

For the compound `COc1cc(C)c(S(=O)(=O)N(C)Cc2cc(C(=O)NCc3ccc(Nc4cccc[n+]4C)cc3)co2)c(C)c1` [Ex 12, 2-({4-[({[5-({[(4-methoxy-2,6-dimethylphenyl)sulfonyl](methyl)amino}methyl)furan-3-yl]carbonyl}amino)methyl]phenyl}amino)-1-methylpyridinium iodide], the half-inhibitory concentration (IC50) is 0.1 to 1 µM.

`COc1cc(C)c(S(=O)(=O)N(C)Cc2cc(C(=O)NCCc3ccc(Nc4cccc[n+]4C)cc3)co2)c(C)c1` [Ex 13, 2-({4-[2-({[5-({[(4-methoxy-2,6-dimethylphenyl)sulfonyl](methyl)amino}methyl)furan-3-yl]carbonyl}amino)ethyl]phenyl}amino)-1-methylpyridinium iodide]: the IC50 is < 0.01 µM.

As to `COc1cc(C)c(S(=O)(=O)N(C)Cc2cc(C(=O)NCc3ccc(Nc4nccc(N)n4)cc3)co2)c(C)c1` [Ex 14, N-{4-[(4-aminopyrimidin-2-yl)amino]benzyl}-5-({[(4-methoxy-2,6-dimethylphenyl)sulfonyl](methyl)amino}methyl)furan-3-carboxamide], the IC50 was 0.1 to 1 µM.

Regarding `CCc1cc(Br)ccc1S(=O)(=O)N(C)Cc1cc(C(=O)N2CCCN(CCCN3CCCC3)CC2)co1` [Ex 15, 4-bromo-2-ethyl-N-methyl-N-[(4-{[4-(3-pyrrolidin-1-ylpropyl)-1,4-diazepan-1-yl]carbonyl}furan-2-yl)methyl]benzenesulfonamide], the IC50 lay within 0.01 to 0.1 µM.

`CCc1cc(Br)ccc1S(=O)(=O)N(C)Cc1cc(C(=O)NCc2cccc(CN3CCCC3)c2)co1` [Ex 16, 5-({[(4-bromo-2-ethylphenyl)sulfonyl](methyl)amino}methyl)-N-[3-(pyrrolidin-1-ylmethyl)benzyl]furan-3-carboxamide]: the IC50 was in the range of 0.1 to 1 µM.

Take `CN1CCC(CN2CCN(C(=O)c3coc(CN(C)S(=O)(=O)c4c(Cl)cccc4Cl)c3)CC2)CC1` [Ex 17, 2,6-dichloro-N-methyl-N-{[4-({4-[(1-methylpiperidin-4-yl)methyl]piperazin-1-yl}carbonyl)furan-2-yl]methyl}benzenesulfonamide]: the IC50 was in the range of 0.1 to 1 µM.

In the case of `CN(Cc1cc(C(=O)N2CCN(CCc3ccncc3)CC2)co1)S(=O)(=O)c1c(Cl)cccc1Cl` [Ex 18, 2,6-dichloro-N-methyl-N-[(4-{[4-(2-pyridin-4-ylethyl)piperazin-1-yl]carbonyl}furan-2-yl)methyl]benzenesulfonamide], the IC50 fell in the range of 0.1 to 1 µM.

For `CN(Cc1ccc(C2=NCCN2)cc1)C(=O)c1coc(CN(C)S(=O)(=O)c2c(Cl)cc(Br)cc2Cl)c1` [Ex 19, 5-({[(4-bromo-2,6-dichlorophenyl)sulfonyl](methyl)amino}methyl)-N-[4-(4,5-dihydro-1H-imidazol-2-yl)benzyl]-N-methylfuran-3-carboxamide], the IC50 is < 0.01 µM.

Take `Cc1cc(S(=O)(=O)N(C)Cc2cc(C(=O)N(C)Cc3ccc(C4=NCCN4)cc3)co2)c(C)cc1Cl` [Ex 20, 5-({[(4-chloro-2,5-dimethylphenyl)sulfonyl](methyl)amino}methyl)-N-[4-(4,5-dihydro-1H-imidazol-2-yl)benzyl]-N-methylfuran-3-carboxamide]: the IC50 is < 0.01 µM.

In the case of `CN(Cc1ccc(C2=NCCN2)cc1)C(=O)c1coc(CN(C)S(=O)(=O)c2ccc(Cl)cc2Cl)c1` [Ex 21, 5-({[(2,4-dichlorophenyl)sulfonyl](methyl)amino}methyl)-N-[4-(4,5-dihydro-1H-imidazol-2-yl)benzyl]-N-methylfuran-3-carboxamide], the IC50 was < 0.01 µM.
